This assay addresses recombinant DYRK1A kinase (Homo sapiens (Human), UniProt Q13627). The experiment in a line: DYRK1A kinase assay (Ser/Thr 18 peptide Z-lyte FRET assay). The format is biochemical. Particulars: DYRK1A kinase activity; 15 μM ATP, 1 h room temperature; method text calls the value IC50. An outline of the steps: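 Recombinant human DYRK1A (0.25 μg/mL) with 15 μM ATP and 4 μM Ser/Thr 18 peptide, 1 h at room temperature with compound (11-point, 1:3, 10 μM top, duplicate). Z-lyte development 1 h, then coumarin/fluorescein FRET emission ratio converted to % phosphorylation; IC50 by non-linear regression.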

Each structure is given as a SMILES string.

For orientation: EC50 means the concentration giving half of the maximal effect.

In the case of `COc1nc(N[C@H]2CCCOC2)nc2[nH]cc(-c3ccn4nccc4c3)c12` [Compound 2315, (S)-4-Methoxy-5-(pyrazolo[1,5-a]pyridin-5-yl)-N-(tetrahydro-2H-pyran-3-yl)-7H-pyrrolo[2,3-d]pyrimidin-2-amine], the EC50 was 120 nM.
The same measure for `COc1nc(N[C@@H]2CCOC[C@H]2F)nc2[nH]cc(-c3ccn4nccc4c3)c12` [Compound 2316, N-((3S,4R)-3-Fluorotetrahydro-2H-pyran-4-yl)-4-methoxy-5-(pyrazolo[1,5-a]pyridin-5-yl)-7H-pyrrolo[2,3-d]pyrimidin-2-amine]: 160 nM; for `COc1nc(N[C@@H]2CCOC[C@@H]2F)nc2[nH]cc(-c3ccn4nccc4c3)c12` [Compound 2317, N-((3R,4R)-3-Fluorotetrahydro-2H-pyran-4-yl)-4-methoxy-5-(pyrazolo[1,5-a]pyridin-5-yl)-7H-pyrrolo[2,3-d]pyrimidin-2-amine]: 107 nM; for `COc1nc(N[C@@H]2CCOC[C@H]2O)nc2[nH]cc(-c3ccn4nccc4c3)c12` [Compound 2318, (3S,4R)-4-((4-Methoxy-5-(pyrazolo[1,5-a]pyridin-5-yl)-7H-pyrrolo[2,3-d]pyrimidin-2-yl)amino)tetrahydro-2H-pyran-3-ol]: 12.9 nM.
The same measure for `COc1nc(N[C@@H]2CCOC[C@H]2OC)nc2[nH]cc(-c3ccn4nccc4c3)c12` [Compound 2319, 4-Methoxy-N-((3S,4R)-3-methoxytetrahydro-2H-pyran-4-yl)-5-(pyrazolo [1,5-a]pyridin-5-yl)-7H-pyrrolo[2,3-d]pyrimidin-2-amine]: 287 nM.
As for `CC(C)Oc1nc(N[C@H]2CC[C@@](C)(O)CC2)nc2[nH]cc(-c3ccn4nccc4c3)c12` [Compound 2320, cis-4-((4-Isopropoxy-5-(pyrazolo[1,5-a]pyridin-5-yl)-7H-pyrrolo[2,3-d]pyrimidin-2-yl)amino)-1-methylcyclohexan-1-ol], the EC50 stood at 59.4 nM.
Consider `COc1nc(NC2[C@H]3COC[C@@H]23)nc2[nH]cc(-c3ccn4nccc4c3)c12` (stereo partly drawn) [Compound 2323, N-((1R,5S,6r)-3-Oxabicyclo[3.1.0]hexan-6-yl)-4-methoxy-5-(pyrazolo[1,5-a]pyridin-5-yl)-7H-pyrrolo[2,3-d]pyrimidin-2-amine], for which the EC50 was determined as 0.9 nM.
As for `COc1nc(N[C@@H]2[C@@H]3COC[C@@H]32)nc2[nH]cc(-c3ccn4nccc4c3)c12` [Compound 2324, N-((1R,5S,6s)-3-oxabicyclo[3.1.0]hexan-6-yl)-4-methoxy-5-(pyrazolo [1,5-a]pyridin-5-yl)-7H-pyrrolo[2,3-d]pyrimidin-2-amine], the EC50 was 1.5 nM.
Turning to `COc1nc(NCC(C)(C)F)nc2[nH]cc(-c3ccn4nccc4n3)c12` [Compound 2325, N-(2-Fluoro-2-methylpropyl)-4-methoxy-5-(pyrazolo[1,5-a]pyrimidin-5-yl)-7H-pyrrolo[2,3-d]pyrimidin-2-amine], the concentration giving a half-maximal response (EC50) was 87 nM.
Consider `C[C@]1(O)CC[C@@H](Nc2ncc3c(-c4ccc5nccn5c4)c[nH]c3n2)CC1` [Compound 2349, cis-4-((5-(Imidazo[1,2-a]pyridin-6-yl)-7H-pyrrolo[2,3-d]pyrimidin-2-yl)amino)-1-methylcyclohexan-1-ol], for which the EC50 was 1.3 nM.
For `COc1nc(N[C@H]2CC[C@](C)(O)CC2)nc2[nH]cc(-c3ccc4nccn4c3)c12` [Compound 2378, trans-4-((5-(Imidazo[1,2-a]pyridin-6-yl)-4-methoxy-7H-pyrrolo[2,3-d]pyrimidin-2-yl)amino)-1-methylcyclohexan-1-ol], the EC50 came out at 1.1 nM.
With `COc1nc(N[C@H]2CC[C@](C)(O)CC2)nc2[nH]cc(-c3cc(F)c4nccn4c3)c12` [Compound 2494, trans-4-((5-(8-Fluoroimidazo[1,2-a]pyridin-6-yl)-4-methoxy-7H-pyrrolo[2,3-d]pyrimidin-2-yl)amino)-1-methylcyclohexan-1-ol], the EC50 amounted to 1.1 nM.
The value for `C[C@]1(O)CC[C@@H](Nc2ncc3c(-c4ccc5ncnn5c4)c[nH]c3n2)CC1` [Compound 3018, (1s,4s)-4-((5-([1,2,4]Triazolo[1,5-a]pyridin-6-yl)-7H-pyrrolo[2,3-d]pyrimidin-2-yl)amino)-1-methylcyclohexan-1-ol] was 4.4 nM.
Turning to `COc1nc(N[C@H]2CC[C@@H](OC)CC2)nc2[nH]cc(-c3ccc4ncnn4c3)c12` [Compound 3047, 5-([1,2,4]Triazolo[1,5-a]pyridin-6-yl)-4-methoxy-N-(cis-4-methoxycyclohexyl)-7H-pyrrolo[2,3-d]pyrimidin-2-amine], the EC50 was 1.2 nM.
For the molecule `[2H]C([2H])([2H])Oc1nc(N[C@H]2CC[C@@H](OC)CC2)nc2[nH]cc(-c3ccc4nnn(C)c4c3)c12` [Compound 3115, 4-(Methoxy-d3)—N-(cis-4-methoxycyclohexyl)-5-(1-methyl-1H-benzo[d][1,2,3]triazol-6-yl)-7H-pyrrolo[2,3-d]pyrimidin-2-amine], the EC50 came out at 1.3 nM.
The same measure for `COc1nc(N[C@H]2CC[C@](C)(O)CC2)nc2[nH]cc(-c3ccc4nnn(C)c4c3)c12` [Compound 3119, trans-4-((4-Methoxy-5-(1-methyl-1H-benzo[d][1,2,3]triazol-6-yl)-7H-pyrrolo[2,3-d]pyrimidin-2-yl)amino)-1-methylcyclohexan-1-ol]: 0.2 nM; for `COc1nc(N[C@H]2CC[C@@](C)(O)CC2)nc2[nH]cc(-c3ccc4nnn(C)c4c3)c12` [Compound 3120, cis-4-((4-Methoxy-5-(1-methyl-1H-benzo[d][1,2,3]triazol-6-yl)-7H-pyrrolo[2,3-d]pyrimidin-2-yl)amino)-1-methylcyclohexan-1-ol]: 4.2 nM; for `COc1nc(N[C@@H]2[C@@H]3COC[C@@H]32)nc2[nH]cc(-c3ccc4nnn(C)c4c3)c12` [Compound 3127, N-((1R,5S,6s)-3-Oxabicyclo[3.1.0]hexan-6-yl)-4-methoxy-5-(1-methyl-1H-benzo[d][1,2,3]triazol-6-yl)-7H-pyrrolo[2,3-d]pyrimidin-2-amine]: 1.4 nM.
Turning to `COc1nc(N[C@@H]2[C@@H]3COC[C@@H]32)nc2[nH]cc(-c3ccc4nnn(C)c4c3)c12` [Compound 3128, N-((1R,5S,6r)-3-Oxabicyclo[3.1.0]hexan-6-yl)-4-methoxy-5-(1-methyl-1H-benzo[d][1,2,3]triazol-6-yl)-7H-pyrrolo[2,3-d]pyrimidin-2-amine], the 50% effective concentration (EC50) was found to be 0.6 nM.
In the case of `COc1nc(NC2CCC3(CC2)COC3)nc2[nH]cc(-c3ccc4nnn(C)c4c3)c12` [Compound 3133, 4-Methoxy-5-(1-methyl-1H-benzo[d][1,2,3]triazol-6-yl)-N-(2-oxaspiro[3.5]nonan-7-yl)-7H-pyrrolo[2,3-d]pyrimidin-2-amine], the half-maximal effective concentration (EC50) stood at 1.1 nM.
As to `C[C@]1(O)CC[C@@H](Nc2ncc3c(-c4ccc5nccn5n4)c[nH]c3n2)CC1` [Compound 3224, (1s,4s)-4-((5-(Imidazo[1,2-b]pyridazin-6-yl)-7H-pyrrolo[2,3-d]pyrimidin-2-yl)amino)-1-methylcyclohexan-1-ol], the EC50 turned out to be 2.6 nM.
As for `CO[C@H]1CC[C@H](Nc2ncc3c(-c4ccn5nccc5c4)c[nH]c3n2)CC1` [Compound 3277, N-(trans-4-Methoxycyclohexyl)-5-(pyrazolo[1,5-a]pyridin-5-yl)-7H-pyrrolo[2,3-d]pyrimidin-2-amine], the EC50 worked out at 1.9 nM.
The value for `FC(F)O[C@H]1CC[C@H](Nc2ncc3c(-c4ccn5nccc5c4)c[nH]c3n2)CC1` [Compound 3278, N-(trans-4-(Difluoromethoxy)cyclohexyl)-5-(pyrazolo[1,5-a]pyridin-5-yl)-7H-pyrrolo[2,3-d]pyrimidin-2-amine] was 19.2 nM.
Turning to `COc1nc(N)nc2[nH]cc(-c3ccn4nccc4c3)c12` [Compound 3291, 4-methoxy-5-(pyrazolo[1,5-a]pyridin-5-yl)-7H-pyrrolo[2,3-d]pyrimidin-2-amine], the EC50 amounted to 1.1 nM.
Turning to `COc1nc(N[C@H]2CC[C@H](OC)CC2)nc2[nH]cc(-c3ccn4nccc4c3)c12` [Compound 3310, 4-Methoxy-N-(trans-4-methoxycyclohexyl)-5-(pyrazolo[1,5-a]pyridin-5-yl)-7H-pyrrolo[2,3-d]pyrimidin-2-amine], the concentration giving a half-maximal response (EC50) turned out to be 230 nM.
Consider `[2H]C([2H])([2H])Oc1nc(N[C@H]2CC[C@@H](OC)CC2)nc2[nH]cc(-c3ccn4nccc4c3)c12` [Compound 3311, 4-(Methoxy-d3)—N-(cis-4-methoxycyclohexyl)-5-(pyrazolo[1,5-a]pyridin-5-yl)-7H-pyrrolo[2,3-d]pyrimidin-2-amine], for which the EC50 turned out to be 1.4 nM.
Turning to `COc1nc(NC2CC3(COC3)C2)nc2[nH]cc(-c3ccn4nccc4c3)c12` [Compound 3321, 4-Methoxy-5-(pyrazolo[1,5-a]pyridin-5-yl)-N-(2-oxaspiro[3.3]heptan-6-yl)-7H-pyrrolo[2,3-d]pyrimidin-2-amine], the EC50 stood at 37.5 nM.
With `COc1nc(NC2CCC3(CC2)COC3)nc2[nH]cc(-c3ccn4nccc4c3)c12` [Compound 3326, 4-Methoxy-5-(pyrazolo[1,5-a]pyridin-5-yl)-N-(2-oxaspiro[3.5]nonan-7-yl)-7H-pyrrolo[2,3-d]pyrimidin-2-amine], the EC50 stood at 1.6 nM.
`COc1nc(N[C@H]2CC[C@@H](OC)CC2)nc2[nH]cc(-c3ccn4ncnc4c3)c12` [Compound 3384, 5-([1,2,4]Triazolo[1,5-a]pyridin-7-yl)-4-methoxy-N-(cis-4-methoxycyclohexyl)-7H-pyrrolo[2,3-d]pyrimidin-2-amine]: the EC50 was determined as 1.2 nM.
As to `CO[C@H]1CC[C@H](Nc2ncc3c(-c4ccn5nccc5n4)c[nH]c3n2)CC1` [Compound 3420, N-(trans-4-Methoxycyclohexyl)-5-(pyrazolo[1,5-a]pyrimidin-5-yl)-7H-pyrrolo[2,3-d]pyrimidin-2-amine], the EC50 stood at 5.6 nM.
With `FC(F)O[C@H]1CC[C@H](Nc2ncc3c(-c4ccn5nccc5n4)c[nH]c3n2)CC1` [Compound 3421, N-(trans-4-(difluoromethoxy)cyclohexyl)-5-(pyrazolo[1,5-a]pyrimidin-5-yl)-7H-pyrrolo[2,3-d]pyrimidin-2-amine], the half-maximal effective concentration (EC50) amounted to 28.1 nM.

For the origin of these results see patent publication US20250129104A1, “7H-PYRROLO[2,3-D]PYRIMIDINES AND PREPARATION AND USES THEREOF” (BioSplice Therapeutics, Inc., priority 2021, published 2025).
